Publication PMC2749862, “Glucocorticoids with different chemical structures but similar glucocorticoid receptor potency regulate subsets of common and unique genes in human trabecular meshwork cells” (BMC Medical Genomics, 2009)
Where “and” joins values, the source holds several entries; their conditions need not be identical. Equal entries are not always repeated.

Tests used:
glucocorticoid receptor [1] = target: T1, glucocorticoid receptor (Homo sapiens, UniProt P04150); assay: GeneBLAzer beta-lactamase reporter gene assay, GR transactivation in MMTV-bla HeLa CellSensor cells; assay type: cell-based; settings: 5 hr treatment
T1 sequence (P04150 524-777 limits assumed): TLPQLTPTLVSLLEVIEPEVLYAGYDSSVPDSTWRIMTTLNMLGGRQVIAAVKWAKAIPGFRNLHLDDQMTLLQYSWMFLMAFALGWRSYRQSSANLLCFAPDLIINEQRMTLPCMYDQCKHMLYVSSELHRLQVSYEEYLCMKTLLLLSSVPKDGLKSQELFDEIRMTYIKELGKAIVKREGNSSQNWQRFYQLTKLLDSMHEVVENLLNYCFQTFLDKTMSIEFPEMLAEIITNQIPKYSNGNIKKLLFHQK
Method: GR transactivation activity was assessed by the Invitrogen SelectScreen Profiling Service (Madison, WI), using Invitrogen GeneBLAzer beta-lactamase reporter gene technology. Profiling was performed using human HeLa cells stably transfected with an expression construct containing β-lactamase cDNA under the control of the MMTV response element previously identified as a GR response element (MMTV-bla HeLa CellSensor®). The MMTV-bla HeLa cells were plated in 384-well plates in 32 μl assay medium (OPTIMEM + 1% charcoal/dextran stripped FBS) at a density of 10,000 cells/well and incubated overnight. […] The β-lactamase activity of each sample was determined by adding 8 μl of 6-fold concentrated LiveBLAzer™ substrate solution to the samples followed by two hours of incubation at room temperature in a Tecan Safire2 plate reader using the appropriate LiveBLAzer™ filter settings. GC treatment was performed in 15-point dose response using a three-fold dilution series starting with a maximum compound concentration of 10 μM. Each data point represents a triplicate sample (n = 3). Assay reproducibility was determined by calculating Z' values for untreated vs. maximum stimulation. The GeneBLAzer assay was performed twice.

glucocorticoid receptor [2] = target: T1, glucocorticoid receptor; assay: GR radiolabeled competitive binding assay (IM-9 cell cytosol, [3H]dexamethasone; Cerep); settings: for nH (Hill coefficient): IM-9 cell cytosol competition curves
Method: GR binding affinity assay was performed at Cerep Inc. (Celle l'Evescault, France), according to an established method. […] Nonspecific binding is determined in the presence of 10 μM triamcinolone. Following incubation, the samples are filtered rapidly under vacuum through glass fiber filters (GF/B, Packard) presoaked with 0.3% Poly(ethyleneimine) and rinsed several times with ice-cold 50 mM Tris-HCl using a 96-sample cell harvester (Unifilter, Packard). The filters are dried and counted for radioactivity in a scintillation counter (Topcount, Packard) using a scintillation cocktail (Microscint 0, Packard). The results are expressed as percent inhibition of the control radioligand specific binding. The IC50 values (concentration causing half-maximal inhibition of control specific binding) and Hill coefficients (nH) were determined by non-linear regression analysis of the competition curves generated with mean replicate values using Hill equation curve fitting (Y = D + [(A - D)/(1 + (C/C50)^nH)], where Y = specific binding, D = minimum specific binding, A = maximum specific binding, C = compound concentration, C50 = IC50, and nH = slope factor). […] The inhibition constants (Ki) were calculated using the Cheng Prusoff equation (Ki = IC50/(1+(L/KD)), where L = concentration of radioligand in the assay, and KD = affinity of the radioligand for the receptor). […] The GR binding assay was performed in duplicate.

TM 93 cells = assay: Microarray gene expression profiling in TM 93 cells (with IPA and GoMiner analysis); assay type: cell-based, human; settings: 1 μM, 24 hr
From the text: (§1) Cells were maintained in low glucose Dulbecco's Modified Eagle Medium (DMEM, Invitrogen, Carlsbad, CA) supplemented with 10% (vol/vol) FBS (American Type Culture Collection, Manassas, VA), 1% (vol/vol) penicillin and streptomycin (Invitrogen). Cells from the human HeLa cervical adenocarcinoma cell line (American Type Culture Collection) were maintained in α-MEM medium supplemented with 10% (v/v) FBS, 1% (v/v) penicillin and streptomycin. All cells were used within passages 3 to 6. […] Cells were maintained for one week with medium renewal every other day. The day before the experiment, confluent TM were washed once with phosphate-buffered saline (PBS) and then the cells were maintained in 1% FBS-containing medium with antibiotics. […] Control cells were treated with 0.1%(v/v) dimethylsulfoxide (DMSO). At the end of GC treatment, supernatant was discarded and the cell monolayer was kept frozen at -80°C for subsequent total RNA extraction and gene expression profiling. […] Briefly, RNA was isolated from flash frozen cell culture plates using RNeasy Mini columns (Qiagen, Valencia, CA) according to the manufacturer's protocol. There were three biological replicates per treatment condition. The quantity and purity of the extracted RNA was evaluated using a NanoDrop ND-1000 spectrophotometer (Nanodrop Technologies, Wilmington, DE, USA) and its integrity measured using an Agilent Bioanalyzer. […] The amount and quality of the fluorescently labeled cRNA was assessed using a NanoDrop ND-1000 spectrophotometer and an Agilent Bioanalyzer. An equal amount of Cy3-labeled cRNA (1.6 μg) was hybridized to the Agilent Human Whole Genome Oligo Microarray (Agilent Technologies) for 17 hours, prior to washing and scanning. Data were extracted from scanned images using Agilent's Feature Extraction Software (Agilent Technologies) using default settings. […] The full complement of microarray data has been deposited in the NIH/NLM Gene Expression Omnibus (GEO accession # GSE16643). […] The lists of differentially expressed genes were also applied to global functional, network and canonical pathway analyses using Ingenuity Pathway Analysis (Ingenuity® Systems, Redwood City, CA).

TM 86 cells = assay: Microarray gene expression profiling in TM 86 cells (with IPA and GoMiner analysis); assay type: cell-based, human; settings: 1 μM, 24 hr
From the text: as §1

CC1(C)O[C@@H]2C[C@H]3[C@@H]4C[C@H](F)C5=CC(=O)C=C[C@]5(C)[C@@]4(F)[C@@H](O)C[C@]3(C)[C@]2(C(=O)CO)O1 [FA, fluocinolone acetonide]
EC50 (glucocorticoid receptor [1]): 0.7 nM and 0.67 nM | nH (Hill coefficient) (glucocorticoid receptor [2]): 1.10 ± 0.00 | Ki (glucocorticoid receptor [2]; IM-9 cell cytosol, calculated by Cheng Prusoff equation): 0.97 ± 0.17 nM | IC50 (glucocorticoid receptor [2]; read-out: GR binding affinity IC50): 2 ± 0.42 nM | function of significantly regulated genes (Ingenuity Pathway Analysis) (TM 93 cells): cell cycle | number of genes uniquely regulated by each GC (TM 93 cells): 2294 | significantly regulated biological process (GoMiner gene ontology) (TM 93 cells): biopolymer metabolic process | significantly regulated network (Ingenuity Pathway Analysis) (TM 93 cells): JARID1B-based network | ANGPTL4 FC (fold change) (TM 93 cells; microarray): 9.1 fold | ANGPTL7 FC (fold change) (TM 93 cells; microarray): 13.0 fold | AQP1 FC (fold change) (TM 93 cells; microarray): -3.2 fold | CCRL1 FC (fold change) (TM 93 cells; microarray): -2.5 fold | CXADR FC (fold change) (TM 93 cells; microarray): -1.8 fold | ENST00000344214 FC (fold change) (TM 93 cells; microarray): -6.3 fold | FKBP5 FC (fold change) (TM 93 cells; microarray): 6.8 fold | GABRB1 FC (fold change) (TM 93 cells; microarray): -2.2 fold | ITGA10 FC (fold change) (TM 93 cells; microarray): 9.1 fold | KAL1 FC (fold change) (TM 93 cells; microarray): -3.0 fold | KCNB1 FC (fold change) (TM 93 cells; microarray): 5.2 fold | KIF4A FC (fold change) (TM 93 cells; microarray): -2.2 fold | KLF15 FC (fold change) (TM 93 cells; microarray): 3.6 fold | LSP1 FC (fold change) (TM 93 cells; microarray): 18.0 fold | MXRA5 FC (fold change) (TM 93 cells; microarray): -4.5 fold | MYOC FC (fold change) (TM 93 cells; microarray): 2.7 fold | OCA2 FC (fold change) (TM 93 cells; microarray): 98.0 fold | PCDH19 FC (fold change) (TM 93 cells; microarray): -3.9 fold | PER3 FC (fold change) (TM 93 cells; microarray): -3.6 fold | PF4 FC (fold change) (TM 93 cells; microarray): 6.5 fold | RGC32 FC (fold change) (TM 93 cells; microarray): 11.0 fold | SAA1 FC (fold change) (TM 93 cells; microarray): 8.3 fold | ZBTB16 FC (fold change) (TM 93 cells; microarray): 4.9 fold | function of significantly regulated transcripts (Ingenuity Pathway Analysis) (TM 86 cells): lipid metabolism | number of genes uniquely regulated by each GC (TM 86 cells): 693 | significantly regulated biological process (GoMiner gene ontology) (TM 86 cells): actin filament-based process | significantly regulated network (Ingenuity Pathway Analysis) (TM 86 cells): a GR-dependent network | ANGPTL4 FC (fold change) (TM 86 cells; microarray): 9.6 fold | ANGPTL7 FC (fold change) (TM 86 cells; microarray): 16.0 fold | AQP1 FC (fold change) (TM 86 cells; microarray): -4.4 fold | CCRL1 FC (fold change) (TM 86 cells; microarray): -4.7 fold | CXADR FC (fold change) (TM 86 cells; microarray): -3.4 fold | FKBP5 FC (fold change) (TM 86 cells; microarray): 13.8 fold | GABRB1 FC (fold change) (TM 86 cells; microarray): -4.0 fold | ITGA10 FC (fold change) (TM 86 cells; microarray): 25.1 fold | KAL1 FC (fold change) (TM 86 cells; microarray): -5.6 fold | KCNB1 FC (fold change) (TM 86 cells; microarray): 20.1 fold | KIF4A FC (fold change) (TM 86 cells; microarray): -3.6 fold | KLF15 FC (fold change) (TM 86 cells; microarray): 11.5 fold | LSP1 FC (fold change) (TM 86 cells; microarray): 14.9 fold | MXRA5 FC (fold change) (TM 86 cells; microarray): -4.3 fold | MYOC FC (fold change) (TM 86 cells; microarray): 7.4 fold | PCDH19 FC (fold change) (TM 86 cells; microarray): -5.1 fold | PER3 FC (fold change) (TM 86 cells; microarray): -5.3 fold | PF4 FC (fold change) (TM 86 cells; microarray): 3.1 fold and 3.2 fold | RASL11B FC (fold change) (TM 86 cells; microarray): -4.9 fold | RGC32 FC (fold change) (TM 86 cells; microarray): >100 fold | SAA1 FC (fold change) (TM 86 cells; microarray): 34.6 fold | ZBTB16 FC (fold change) (TM 86 cells; microarray): 8.7 fold

C[C@@H]1C[C@H]2[C@@H]3CCC4=CC(=O)C=C[C@]4(C)[C@@]3(F)[C@@H](O)C[C@]2(C)[C@@]1(O)C(=O)CO [DEX, dexamethasone]
nH (Hill coefficient) (glucocorticoid receptor [2]): 1.06 ± 0.18 | function of significantly regulated genes (Ingenuity Pathway Analysis) (TM 93 cells): histone methylation | number of genes uniquely regulated by each GC (TM 93 cells): 745 | significantly regulated biological process (GoMiner gene ontology) (TM 93 cells): membrane lipid metabolic process | significantly regulated network (Ingenuity Pathway Analysis) (TM 93 cells): a network centered around a histone methyltransferase known as suppressor of zeste 12 homolog or SUZ12 | function of significantly regulated transcripts (Ingenuity Pathway Analysis) (TM 86 cells): RNA post-transcriptional modifications | number of genes uniquely regulated by each GC (TM 86 cells): 1761 | significantly regulated biological process (GoMiner gene ontology) (TM 86 cells): cellular component organization and biogenesis | significantly regulated network (Ingenuity Pathway Analysis) (TM 86 cells): a network centered around the RNA binding protein S1 or RNPS1
